# PubChem BioAssay AID248 (DTP/NCI, 2004)
# Where “and” joins values, the source holds several entries; their conditions need not be identical. Equal values may be shown once. Inconclusive results and toxic doses are left out.
# Tested on: L1210 leukemia ip in BDF1 mice, survival T/C
# Assay: NCI In Vivo Anticancer Drug Screen. Data for tumor model L1210 Leukemia (intraperitoneal) in B6D2F1 (BDF1) mice
# Settings: endpoint: mean survival time, higher = longer survival
# Method in brief: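 Mice bearing the transplanted tumor received compound or vehicle. Survival of the treated group was divided by that of the vehicle-treated control group to give the ratio.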
smiles,measurement,setting,value
CCCOC1=C(N2CC2)C(=O)C(OCCC)=C(N2CC2)C1=O,T/C,"dose: 0.23 mg/kg/injection, schedule: Q01DX009 (ip), vehicle: Klucel (hydroxypropylcellulose) (HPC)",103 % of control
same,T/C,"dose: 0.46 mg/kg/injection, schedule: Q01DX009 (ip), vehicle: Klucel (hydroxypropylcellulose) (HPC)",107 % of control
same,T/C,"dose: 0.62 mg/kg/injection, schedule: Q#A X Z (ip), vehicle: alkali diluted with saline",113 % of control
same,T/C,"dose: 0.93 mg/kg/injection, schedule: Q01DX009 (ip), vehicle: Klucel (hydroxypropylcellulose) (HPC)",108 % of control
same,T/C,"dose: 1.25 mg/kg/injection, schedule: Q01DX006 (iv), vehicle: alkali diluted with saline",113 % of control
same,T/C,"dose: 1.25 mg/kg/injection, schedule: Q01DX Z (im), vehicle: alkali diluted with saline",113 % of control
same,T/C,"dose: 1.25 mg/kg/injection, schedule: Q01DX Z (ip), vehicle: alkali diluted with saline",104 % of control
same,T/C,"dose: 1.25 mg/kg/injection, schedule: Q01DX Z (sc), vehicle: alkali diluted with saline",113 % of control
same,T/C,"dose: 1.25 mg/kg/injection, schedule: Q#A X Z (ip), vehicle: alkali diluted with saline",121 % of control
same,T/C,"dose: 1.87 mg/kg/injection, schedule: Q01DX009 (ip), vehicle: Klucel (hydroxypropylcellulose) (HPC)",114 % of control
same,T/C,"dose: 1.87 mg/kg/injection, schedule: Q04DX003 (ip), vehicle: Klucel (hydroxypropylcellulose) (HPC)",106 % of control
same,T/C,"dose: 2.5 mg/kg/injection, schedule: Q01DX006 (iv), vehicle: alkali diluted with saline",109 % of control
same,T/C,"dose: 2.5 mg/kg/injection, schedule: Q01DX Z (im), vehicle: alkali diluted with saline",122 % of control
same,T/C,"dose: 2.5 mg/kg/injection, schedule: Q01DX Z (sc), vehicle: alkali diluted with saline",110 % of control
same,T/C,"dose: 3.0 mg/kg/injection, schedule: Q03DX006 (ip), vehicle: alkali diluted with saline",107 % of control
same,T/C,"dose: 3.75 mg/kg/injection, schedule: Q01DX009 (ip), vehicle: Klucel (hydroxypropylcellulose) (HPC)",122 % of control
same,T/C,"dose: 3.75 mg/kg/injection, schedule: Q04DX003 (ip), vehicle: Klucel (hydroxypropylcellulose) (HPC)",118 % of control
same,T/C,"dose: 5.0 mg/kg/injection, schedule: Q01DX006 (iv), vehicle: alkali diluted with saline",122 % of control
same,T/C,"dose: 5.0 mg/kg/injection, schedule: Q01DX Z (oral), vehicle: alkali diluted with saline",113 % of control
same,T/C,"dose: 5.0 mg/kg/injection, schedule: Q#A X Z (ip), vehicle: alkali diluted with saline",158 % of control
same,T/C,"dose: 7.0 mg/kg/injection, schedule: Q03DX006 (ip), vehicle: alkali diluted with saline",115 % of control
same,T/C,"dose: 10.0 mg/kg/injection, schedule: Q01DX001 (ip), vehicle: alkali diluted with saline",112 % of control
same,T/C,"dose: 10.0 mg/kg/injection, schedule: Q01DX006 (iv), vehicle: alkali diluted with saline",115 % of control
same,T/C,"dose: 10.0 mg/kg/injection, schedule: Q01DX Z (im), vehicle: alkali diluted with saline",163 % of control
same,T/C,"dose: 10.0 mg/kg/injection, schedule: Q01DX Z (oral), vehicle: alkali diluted with saline",115 % of control
same,T/C,"dose: 10.0 mg/kg/injection, schedule: Q07DX003 (ip), vehicle: alkali diluted with saline",96 % of control
same,T/C,"dose: 15.0 mg/kg/injection, schedule: Q03DX006 (ip), vehicle: alkali diluted with saline",153 % of control
same,T/C,"dose: 20.0 mg/kg/injection, schedule: Q01DX001 (ip), vehicle: alkali diluted with saline",104 % of control and 115 % of control
same,T/C,"dose: 20.0 mg/kg/injection, schedule: Q01DX006 (iv), vehicle: alkali diluted with saline",103 % of control
same,T/C,"dose: 20.0 mg/kg/injection, schedule: Q01DX Z (im), vehicle: alkali diluted with saline",94 % of control
same,T/C,"dose: 20.0 mg/kg/injection, schedule: Q01DX Z (sc), vehicle: alkali diluted with saline",120 % of control
same,T/C,"dose: 20.0 mg/kg/injection, schedule: Q07DX003 (ip), vehicle: alkali diluted with saline",106 % of control
same,T/C,"dose: 20.0 mg/kg/injection, schedule: Q#A X Z (ip), vehicle: alkali diluted with saline",103 % of control
same,T/C,"dose: 30.0 mg/kg/injection, schedule: Q03DX006 (ip), vehicle: alkali diluted with saline",117 % of control
same,T/C,"dose: 30.0 mg/kg/injection, schedule: Q04DX003 (ip), vehicle: Klucel (hydroxypropylcellulose) (HPC)",102 % of control
same,T/C,"dose: 40.0 mg/kg/injection, schedule: Q01DX001 (ip), vehicle: alkali diluted with saline",118 % of control
same,T/C,"dose: 40.0 mg/kg/injection, schedule: Q01DX006 (iv), vehicle: alkali diluted with saline",123 % of control
same,T/C,"dose: 40.0 mg/kg/injection, schedule: Q01DX Z (im), vehicle: alkali diluted with saline",121 % of control
same,T/C,"dose: 40.0 mg/kg/injection, schedule: Q01DX Z (ip), vehicle: alkali diluted with saline",106 % of control
same,T/C,"dose: 40.0 mg/kg/injection, schedule: Q01DX Z (sc), vehicle: alkali diluted with saline",113 % of control
same,T/C,"dose: 40.0 mg/kg/injection, schedule: Q07DX003 (ip), vehicle: alkali diluted with saline",124 % of control
same,T/C,"dose: 80.0 mg/kg/injection, schedule: Q01DX001 (ip), vehicle: alkali diluted with saline",124 % of control
same,T/C,"dose: 80.0 mg/kg/injection, schedule: Q01DX Z (oral), vehicle: alkali diluted with saline",122 % of control
same,T/C,"dose: 125.0 mg/kg/injection, schedule: Q01DX001 (ip), vehicle: alkali diluted with saline",103 % of control
same,T/C,"dose: 160.0 mg/kg/injection, schedule: Q01DX001 (ip), vehicle: alkali diluted with saline",115 % of control and 121 % of control
same,T/C,"dose: 160.0 mg/kg/injection, schedule: Q07DX003 (ip), vehicle: alkali diluted with saline",111 % of control
same,T/C,"dose: 320.0 mg/kg/injection, schedule: Q01DX001 (ip), vehicle: alkali diluted with saline",107 % of control and 113 % of control
same,T/C,"dose: 320.0 mg/kg/injection, schedule: Q07DX003 (ip), vehicle: alkali diluted with saline",111 % of control
same,T/C,"dose: 500.0 mg/kg/injection, schedule: Q01DX001 (ip), vehicle: alkali diluted with saline",102 % of control
same,T/C,"dose: 640.0 mg/kg/injection, schedule: Q07DX003 (ip), vehicle: alkali diluted with saline",123 % of control
same,T/C,"dose: 1000.0 mg/kg/injection, schedule: Q01DX001 (ip), vehicle: alkali diluted with saline",106 % of control
CC1C=C2c3ccccc3CC2C2C(=O)OC(=O)C12 (stereo not given),T/C,"dose: 75.0 mg/kg/injection, schedule: Q01DX001 (ip), vehicle: saline",95 % of control
same,T/C,"dose: 150.0 mg/kg/injection, schedule: Q01DX001 (ip), vehicle: saline",100 % of control
same,T/C,"dose: 300.0 mg/kg/injection, schedule: Q01DX001 (ip), vehicle: saline",100 % of control
CN(CCCl)C1c2ccccc2-c2ccccc21,T/C,"dose: 25.0 mg/kg/injection, schedule: Q04DX002 (ip), vehicle: saline",100 % of control
same,T/C,"dose: 50.0 mg/kg/injection, schedule: Q04DX002 (ip), vehicle: saline",100 % of control
same,T/C,"dose: 100.0 mg/kg/injection, schedule: Q04DX002 (ip), vehicle: saline",106 % of control and 117 % of control
Cc1cc[n+]([O-])cc1,T/C,"dose: 100.0 mg/kg/injection, schedule: Q01DX001 (ip), vehicle: saline",100 % of control
same,T/C,"dose: 100.0 mg/kg/injection, schedule: Q01DX009 (ip), vehicle: saline",98 % of control
same,T/C,"dose: 100.0 mg/kg/injection, schedule: Q04DX003 (ip), vehicle: saline",94 % of control
same,T/C,"dose: 200.0 mg/kg/injection, schedule: Q01DX001 (ip), vehicle: saline",98 % of control
same,T/C,"dose: 200.0 mg/kg/injection, schedule: Q01DX009 (ip), vehicle: saline",101 % of control
same,T/C,"dose: 200.0 mg/kg/injection, schedule: Q04DX003 (ip), vehicle: saline",102 % of control
same,T/C,"dose: 400.0 mg/kg/injection, schedule: Q01DX001 (ip), vehicle: saline",98 % of control
same,T/C,"dose: 400.0 mg/kg/injection, schedule: Q01DX009 (ip), vehicle: saline",98 % of control
same,T/C,"dose: 400.0 mg/kg/injection, schedule: Q04DX003 (ip), vehicle: saline",98 % of control
BrP(Nc1ccccc1)(c1ccccc1)(c1ccccc1)c1ccccc1,T/C,"dose: 10.0 mg/kg/injection, schedule: Q01DX001 (ip), vehicle: acetone",100 % of control
same,T/C,"dose: 20.0 mg/kg/injection, schedule: Q01DX001 (ip), vehicle: acetone",101 % of control
same,T/C,"dose: 40.0 mg/kg/injection, schedule: Q01DX001 (ip), vehicle: acetone",91 % of control
Cc1ccc(S(=O)(=O)N2CCc3ccccc3C3(C2)OCCO3)cc1,T/C,"dose: 100.0 mg/kg/injection, schedule: Q01DX001 (ip), vehicle: carboxymethylcellulose (CMC)",96 % of control
same,T/C,"dose: 200.0 mg/kg/injection, schedule: Q01DX001 (ip), vehicle: carboxymethylcellulose (CMC)",96 % of control
same,T/C,"dose: 400.0 mg/kg/injection, schedule: Q01DX001 (ip), vehicle: carboxymethylcellulose (CMC)",98 % of control
Cc1c(O)c(Br)c(-c2c(C)c(Br)c(C)c([N+](=O)[O-])c2C)c(O)c1Br,T/C,"dose: 75.0 mg/kg/injection, schedule: Q04DX003 (ip), vehicle: Klucel (hydroxypropylcellulose) (HPC)",103 % of control
same,T/C,"dose: 150.0 mg/kg/injection, schedule: Q04DX003 (ip), vehicle: Klucel (hydroxypropylcellulose) (HPC)",93 % of control
same,T/C,"dose: 300.0 mg/kg/injection, schedule: Q04DX003 (ip), vehicle: Klucel (hydroxypropylcellulose) (HPC)",88 % of control
